Data taken from BindingDB's records for doi:10.1158/1535-7163.MCT-06-0397 (Loma Linda University, 2007).

Each compound was assayed against Serine/threonine-protein kinase pim-1 (Homo sapiens, UniProt P11309) (assay: Solid-Phase ELISA Kinase Assay). Details: pH 7; 30 °C.
Procedure: The 96-well flat-bottomed plates were coated with recombinant GST-BAD. After the plates were blocked, the reaction buffer containing test compound and recombinant GST-PIM1 kinase were added to each well. Phosphorylated GST-BAD was detected by an ELISA reaction. The level of phosphorylated GST-BAD present was proportional to the absorbance at 450 nm. Curve fitting and enzyme analyses were done using GraphPad Prism version 4.00 (GraphPad Software, San Diego, CA).

Chain of Serine/threonine-protein kinase pim-1 (P11309 whole entry): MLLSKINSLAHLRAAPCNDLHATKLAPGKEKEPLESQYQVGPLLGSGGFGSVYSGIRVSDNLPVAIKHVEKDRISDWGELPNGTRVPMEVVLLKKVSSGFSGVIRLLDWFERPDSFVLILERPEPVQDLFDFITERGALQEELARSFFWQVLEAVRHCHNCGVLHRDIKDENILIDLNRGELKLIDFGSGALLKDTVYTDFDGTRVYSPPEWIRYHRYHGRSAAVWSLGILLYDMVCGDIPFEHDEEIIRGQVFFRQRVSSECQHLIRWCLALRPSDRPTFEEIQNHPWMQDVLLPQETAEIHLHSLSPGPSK

With O=c1c(O)c(-c2ccc(O)cc2)oc2cc(O)ccc12 [3,7-dihydroxy-2-(4-hydroxyphenyl)-4H-chromen-4-one] as the compound, how does the IC50 read?
The IC50 was 0.98 µM.

With O=c1cc(-c2ccc(O)c(O)c2)oc2cc(O)cc(O)c12 [2-(3,4-dihydroxyphenyl)-5,7-dihydroxy-4H-chromen-4-one] as the compound, how does the IC50 read?
The IC50 was 1.6 µM.

For O=c1c(O)c(-c2ccc(O)c(O)c2)oc2cc(O)ccc12 [2-(3,4-dihydroxyphenyl)-3,7-dihydroxy-chromen-4-one], which IC50 is on record?
The IC50 was 0.85 µM.

O=c1c(O)c(-c2ccccc2)oc2cc(O)ccc12 [3,7-dihydroxy-2-phenyl-4H-chromen-4-one] was tested. Which IC50 did it give?
Its IC50 is 4.6 µM.

With CC(C)=CCc1c(O)cc(O)c2c1O[C@H](c1ccccc1)CC2=O [(2S)-5,7-dihydroxy-8-(3-methylbut-2-en-1-yl)-2-phenyl-3,4-dihydro-2H-1-benzopyran-4-one] as the compound, how does the IC50 read?
Its IC50 is 12.5 µM.

Which IC50 does the source give for O=c1c(O)c(-c2ccc(O)cc2)oc2cc(O)cc(O)c12 here?
The IC50 was 1.3 µM.

O=c1cc(-c2ccc(O)cc2)oc2c(O)c(O)ccc12 was tested. Which IC50 did it give?
Its IC50 is 22 µM.

Which IC50 does the source give for O=c1cc(-c2ccccc2)oc2cc(O)ccc12 [7-Hydroxy-flavone, 5a] here?
Its IC50 is 14 µM.

Which IC50 does the source give for O=c1c(O)c(-c2ccc(O)c(O)c2)oc2c(O)c(O)cc(O)c12 here?
The IC50 was 0.43 µM.

How did the IC50 turn out when O=c1cc(-c2ccc(O)cc2)oc2cc(O)cc(O)c12 [Naringenin, 18] was run?
Its IC50 is 0.94 µM.

How did the IC50 turn out when O=c1cc(-c2ccccc2)oc2cc(O)cc(O)c12 [5,7-dihydroxy-2-phenyl-4H-chromen-4-one] was run?
Its IC50 is 15 µM.

For O=c1c(O)c(-c2cc(O)c(O)c(O)c2)oc2cc(O)cc(O)c12, which IC50 is on record?
The IC50 was 0.78 µM.

How did the IC50 turn out when O=c1c(O)c(-c2ccc(O)cc2O)oc2ccc(O)cc12 [2-(2,4-dihydroxyphenyl)-3,6-dihydroxy-4H-chromen-4-one] was run?
The IC50 was 8.3 µM.

How did the IC50 turn out when O=C1C[C@H](c2ccccc2)Oc2cc(O)cc(O)c21 [(2R)-5,7-dihydroxy-2-phenyl-3,4-dihydro-2H-1-benzopyran-4-one] was run?
The IC50 was 60.2 µM.

With O=C1C[C@@H](c2ccccc2)Oc2cc(O)cc(O)c21 as the compound, how does the IC50 read?
Its IC50 is 107 µM.

How did the IC50 turn out when O=c1cc(-c2cccc(O)c2)oc2cc(O)ccc12 [7-hydroxy-2-(3-hydroxyphenyl)-4H-chromen-4-one] was run?
Its IC50 is 4.52 µM.

With O=c1c(O)c(-c2ccc(O)cc2O)oc2cc(O)cc(O)c12 [2-(2,4-dihydroxyphenyl)-3,5,7-trihydroxychromen-4-one] as the compound, how does the IC50 read?
Its IC50 is 2.7 µM.

Which IC50 does the source give for O=c1cc(-c2cc(O)c(O)c(O)c2)oc2cc(O)ccc12 [7-hydroxy-2-(3,4,5-trihydroxyphenyl)-4H-chromen-4-one] here?
Its IC50 is 7.8 µM.
